Source: PubChem BioAssay (NCI)
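All cell lines were grown in 96-well plates and treated with compound for 48 hours. Here, GI50 denotes the concentration required for 50% inhibition of growth. At the TGI there is no net growth.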

Assays:
Assay in all cases: NCI anticancer screen, dose series, 48 h
[1] = test system: SF-268 CNS
[2] = test system: HCT-15 colon
[3] = test system: MDA-MB-231 breast
[4] = test system: SNB-19 CNS
[5] = test system: COLO 205 colon
[6] = test system: OVCAR-4 ovarian
[7] = test system: HS 578T breast
[8] = test system: DU-145 prostate
[9] = test system: HOP-92 NSCLC
[10] = test system: K-562 leukemia

Compound | TGI [1] [µM] | TGI [2] [µM] | TGI [3] [µM] | TGI [4] [µM] | TGI [5] [µM] | TGI [6] [µM] | TGI [7] [µM] | TGI [8] [µM] | TGI [9] [µM] | TGI [10] [µM] | GI50 [1] [µM] | GI50 [8] [µM] | GI50 [10] [µM]
C=C(C)[C@@H]1CC[C@]2(C(=O)OC3OC(COC4OC(CO)C(OC5OC(C)C(O)C(O)C5O)C(O)C4O)C(O)C(O)C3O)CC[C@]3(C)[C@H](CC[C@@H]4[C@@]5(C)CC[C@H](O)[C@@](C)(CO)[C@@H]5CC[C@]43C)[C@@H]12 (stereo partly drawn) | 9.89 | > 9.68 | > 9.18 | > 10 | 3.2 | > 10 | > 9.62 | > 10 | > 6.7 | > 6.45 | – | – | –
O=C1Sc2cc3ccccc3cc2C(=O)Sc2cc3ccccc3cc21 | > 83.7 | 90.7 | > 100 | > 100 | > 100 | 69.5 | > 100 | > 100 | > 87.6 | > 100 | – | – | –
O=c1[nH]nc(N/N=C\c2ccc(Cl)cc2)c2ccccc12 | 55.5 | 34.9 | 43.7 | 43.1 | 45.9 | > 100 | 62.7 | 72 | 34.5 | 81.1 | – | – | –
CN1CCCC(OC(=O)c2cc3cc(CCl)ccc3oc2=O)C1 (stereo not drawn) | 47 | 51.9 | 52.1 | > 100 | 35.7 | 48.6 | 56.6 | > 100 | 30.5 | > 100 | – | – | –
C=C1CN=C(Nc2ccc(F)cc2F)S1 | > 100 | > 100 | > 100 | > 100 | > 100 | > 100 | > 100 | > 100 | > 100 | > 100 | – | – | –
OCC1c2ccccc2-n2nc(-c3ccccc3)c(O)c21 (stereo not drawn) | > 100 | 29.2 | > 100 | > 100 | 26.5 | > 100 | > 100 | > 100 | 35 | 53 | – | – | –
C#Cc1cccc(Nc2ncnc3cc(OCCOC)c(OCCOC)cc23)c1 | > 100 | > 100 | 44.2 | 92 | > 100 | > 100 | 86.3 | > 100 | 60.2 | > 100 | 14.6 | 1.6 | 27.7
O=C1/C(=C/C=C/c2ccccc2)CCC1CNc1ccc(Br)cc1 (stereo not drawn) | > 100 | > 100 | > 100 | > 100 | 48.6 | > 100 | > 100 | > 100 | > 100 | > 100 | – | – | –
CC(=O)NCC1OC2COC(c3ccccc3)OC2C2N=C(c3ccccc3)OC12 (stereo not drawn) | > 100 | > 100 | > 100 | > 100 | > 100 | > 100 | > 100 | > 100 | > 100 | > 100 | – | – | –
CCn1c(SCc2nnc(Nc3ccccc3)s2)nc2ccccc2c1=O | 22.3 | > 100 | 10.2 | 13.4 | 43.2 | 5 | 8.56 | 36.5 | 9.11 | > 73.2 | – | – | –
COC(C[C@H]1CCCC[C@]1(O)/C(=C\CO[Si](C(C)C)(C(C)C)C(C)C)Sc1ccccc1)OC | > 100 | 60 | 49.8 | > 100 | 47.4 | > 100 | > 100 | > 100 | 68.8 | > 100 | – | – | –
COCCN(C(=O)c1ccccc1)C1CCC(=O)c2[nH]c3ccccc3c21 (stereo not drawn) | 28.4 | 31.9 | 15.9 | 24.3 | 31.5 | 22.2 | > 75.5 | 27.9 | 25 | 18.3 | – | – | –
O=C(O)Cn1ncn(NC(=O)Cc2ccccc2)c1=S | > 10 | > 10 | > 10 | > 10 | > 10 | > 10 | > 10 | > 10 | > 10 | > 10 | – | – | –
Clc1ccc(Cc2nc3ccccc3nc2-c2cccc(Cl)c2)cc1 | 44.4 | 3.46 | 10.4 | 3.85 | 7.88 | 3.24 | 12.4 | 40.6 | 5.14 | 5.79 | – | – | –
